How the values were obtained:
Pst-avrRpm1 = test: Recovery of local immune response in pla2α mutant plant by exogenous lipid after Pst-avrRpm1 inoculation; type: in vivo, Arabidopsis thaliana; details: for complementation of impaired local immunity of pla2α mutant plants (bacterial growth assay): FIG. 3B
Procedure: Arabidopsis plant was cultivated at temperature of 22° C. and relative humidity of 60% with conditions including 16 hours of light period and 120 μmoles m^−2s^−1 of photon flux density. Because the plant defense response is age-dependent, fully mature leaves of the 4 week old plant were used for various analyses. Arabidopsis (Arabidopsis thaliana) mutants including pla2α, pla2α-II, sid2, npr1-5, rps2 and ein2 (Salk_099415, CS857021, Salk_042603, CS3724, Salk_087581, CS3071 and CS8072, respectively) were purchased from Arabidopsis Biological Resource Center, USA. Arabidopsis mutants eds1 and pad4-5 were obtained from S. A. Whitham (Iowa State University, USA) and J. E. Parker (Max Planck Institute for Plant Breeding Research, Germany), respectively. The transgenic line expressing NPR1-eGFP and NahG were obtained from X. Dong (Duke University, USA) and O. M. Park (Korea University, South Korea), respectively.
(§1) Pseudomonas syringae pv. tomato DC3000 (hereinbelow, Pst) and Pst-avrRpm1, which is avrRpm1-containing bacterial strain with no virulency, were obtained from Y. J. Kim (Korea University, South Korea). Pst-avrRpt2, which is avrRpt2-containing bacterial strain with no virulency, was obtained from J. M. Park (KRIBB, South Korea) and Pst-avrRps4, which is avrRps4-containing bacterial strain with no virulency, was obtained from R. Innes (Indiana University, USA). The bacterial strains were cultured and treated according to the method of Katagiri, et al. (Arabidopsis Book, 2002, 1:e0039).
(§2) Every phospholipid was purchased from Avanti Polar Lipids Inc. (USA), and free fatty acids (16:0, 18:0 and 18:1) were purchased from Sigma Co. (USA). The solvent was dried under nitrogen gas stream, and the lipids were suspended therein according to ultrasonication so as to have final concentration of 100 nmol ml^−1 in 0.018% silwet L-77 (or 200 nmol ml^−1 in H2O).
(§3) Based on the analysis of pla2α mutant plants compared to wild type, we hypothesized that the defect in immune responses of the pla2α mutant may be due to the failure to generate the lipid products that mediate downstream immune responses. To test this hypothesis, we supplemented pla2α mutant with LPE18:1 1.5 h after inoculation of Pst-avrRpm1. […] Very importantly, LPE by itself renders local immunity in the absence of avirulent Pst (FIGS. 3C-3E). […] In addition, disease symptoms were much reduced in LPE-sprayed leaves compared to mock-treated ones (FIG. 3E).

[1] = tested on: PR1, PDF1.2, VSP1, JMT, ICS1, PAL1, ACS, LOX2; test: Gene expression analysis (RT-PCR / real-time qPCR) in Arabidopsis leaves after treatment; type: in vivo, Arabidopsis thaliana
Procedure: Total RNA was extracted by using RNA isolator (Gibco, USA) from a sample which has been frozen with liquid nitrogen (i.e., 2 leaves per sample). Reverse transcription polymerase chain reaction (RT-PCR) and real-time quantitative polymerase chain reaction (real-time qPCR) were carried out by using gene-specific primers. For the analysis of a real-time quantitative polymerase chain reaction, Applied Biosystems 7900 Real-Time PCR SYSTEM™ was used. 2×SYBR® Green qPCR master mix was used for PCT amplification. The analyzed data were normalized first against the amount of ACTIN1 gene, and the fold increase of gene expression according to treatment was determined in comparison with a mock or non-treatment plant (1.0 fold). Reference gene as an alternative (AT1G13320) was obtained from the previous study (Hong et al., 2010, Plant Cell Physiol. 51:1694-1706). The gene-specific primers that are used in the present invention are as described in Table 1 and Table 2 below.
as §2
(§4) The mature form of the recombinant PLA2α protein was produced in Escherichia coli which is fused with Dsbc protein. According to the method described before (Ryu et al., 2005, Biochem Biophys Acta. 1736:144-151), it was purified by affinity chromatography. The protein mixture in which PLA2α and Dsbc are separated from each other or Dsbc:PLA2α fusion protein (10 μgml^−1) was treated on the leaf of pla2α mutant by syringe infiltration, each in an amount of 0.5 μg. The enzyme activity of PLA2α was determined by in vitro analysis using substrate PE for a reaction mixture containing 10 mM Ca^2+ and 0.05% Triton X-100 in 50 mM Tris-HCl (pH 8.5). The mock-treated plant was infiltrated with a buffer (50 mM Tris-HCl, pH 8.0) or Dsbc protein. For inactivation of the PLA2α activity, recombinant PLA2α was pre-treated for 30 minutes at 30° C. with 2 μM manoalide as an irreversible inhibitor.

virulent Pst = test: Acquirement of local immunity against virulent Pst by treatment with only LPE; type: in vivo, Arabidopsis thaliana; details: for bacterial growth of virulent Pst: compared to mock treatment
Procedure: as §1, §2, §3

Pst = test: In vitro antibacterial activity against Pst; type: cell-based, Pseudomonas syringae pv. tomato DC3000
Procedure: In order to determine the antibacterial activity of PLA2α, 3 μg of recombinant PLA2α in free and mature form, which has been prepared according to the method by Ryu et al. (Biochem Biophys Acta. 2005, 1736:144-151), was added to 100 μl of a solution (Tris-HCl (50 mM, pH 8.0), 10 mM calcium chloride (CaCl2)) in which virulent Pst (5×10^5 CFU ml^1) is suspended. The bacteria sample was cultured in a weak shaking state at 28° C. for 6 hours. Thereafter, only the survived bacteria were titrated. As a mock control group, a suspension in which the bacteria are suspended in a solution having no PLA2α was used.

[2] = tested on: salicylic acid, ethylene, and jasmonic acid; test: Quantification of salicylic acid, ethylene and jasmonic acid in Arabidopsis leaf; type: in vivo, Arabidopsis thaliana
Excerpt: According to the method described before (Bowling et al., 1994, Plant Cell 6:1845-1857; Heck et al., 2003, Plant J. 36:342-352), salicylic acid, ethylene, and jasmonic acid were quantified from 0.5 g of a Arabidopsis leaf sample which has been sprayed with Pst-avrRpm1 suspension (1×10^8 CFU ml^−1 in 0.018% Silwet L-77) or LPE (100 nmol ml^−1 in 0.018% Silwet L-77 or 200 nmol ml^−1 in H2O).

NPR1 = NPR1 transition in transgenic plant carrying 35S::NPR1-eGFP; type: in vivo, Arabidopsis thaliana; details: 35S::NPR1-eGFP transgenic plants, observed 6 hours after spraying
Procedure: NPR1 transition was determined by spraying LPE (100 nmol ml^−1 in 0.018% Silwet L-77), salicylic acid (0.3 mM in 0.018% Silwet L-77), or mock solution (0.018% Silwet L-77) to a transgenic plant carrying 35S::NPR1-eGFP, and observing, 6 hours later, the plant leaf with a laser scanning confocal microscope (Zeiss, Germany).

[3] = suppression of aging; cited from earlier work
PLA2α = biological target: T1, PLA2α (Arabidopsis thaliana, UniProt Q8S8N6); test: In vitro analysis of PLA2 activity (inactivation by manoalide); type: biochemical; details: 2 μM manoalide, 30 minutes at 30° C.
T1 construct: The mature form of the recombinant PLA2α protein was produced in Escherichia coli which is fused with Dsbc protein; DsbC; made in house; host or cells: Escherichia coli
T1 sequence (Q8S8N6 21-148): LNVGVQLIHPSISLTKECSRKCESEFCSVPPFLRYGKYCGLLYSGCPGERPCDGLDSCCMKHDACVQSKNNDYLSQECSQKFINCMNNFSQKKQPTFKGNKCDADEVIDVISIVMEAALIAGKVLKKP
Procedure: as §4

Compound: lysophosphatidylethanolamine 18:1 [LPE18:1]
- recovery of phenotypic defect of pla2α mutant plant (Pst-avrRpm1; FIG. 3A): recovery of phenotypic defect
- complementation of impaired local immunity of pla2α mutant plants (bacterial growth assay) (Pst-avrRpm1): complemented by LPE
- ability of the pla2α mutant to induce local immune responses (Pst-avrRpm1; pla2α mutant supplemented 1.5 h after inoculation of Pst-avrRpm1): restored the ability of the pla2α mutant to induce local immune responses
- ACS gene expression ([1]; Arabidopsis leaves): exhibited ACS gene expression
- LOX2 gene expression ([1]; Arabidopsis leaves): did not exhibit a significant increase in LOX2 gene expression
- PAL1 expression ([1]; Arabidopsis leaves): did not elevate PAL1 expression
- ICS1 gene expression ([1]; Arabidopsis leaves, 6 h post-treatment): displayed ICS1 gene expression
- PR1 gene expression in the sid2 mutant plants ([1]; sid2 mutant): failed to induce PR1 gene expression
- expression of the PR genes PR1 and PDF1.2 ([1]; wild type leaf, LPE vs mock, absence of avirulent Pst): induced the expression of the PR genes PR1 and PDF1.2
- disease symptoms (virulent Pst; LPE-sprayed leaves compared to mock-treated): much reduced
- bacterial growth of virulent Pst (virulent Pst; pla2α mutant plants): suppressed the bacterial growth
- bacterial growth of virulent Pst (virulent Pst; wild type plants): suppressed the bacterial growth
- direct effect on bacterial growth in in vitro assays (Pst): no direct effect on bacterial growth
- JA levels ([2]; Arabidopsis leaves): did not exhibit a significant increase
- ethylene levels ([2]; Arabidopsis leaves): an increase in ethylene levels
- increase in SA levels ([2]; Arabidopsis leaves treated with LPE18:1): 2.5 fold
- NPR1 translocation from the cytoplasm to the nucleus (NPR1): activated NPR1 by inducing its translocation from the cytoplasm to the nucleus
- biological efficacy compared with LPE 16:0 or LPE 18:0 [3]: much higher biological efficacy

Compound: lysophosphatidylglycerol [LPG, reference compound]
- complementation of impaired local immunity of pla2α mutant plants (bacterial growth assay) (Pst-avrRpm1): only a little

Compound: CC1=C(CC/C(C)=C/CCC2=CC[C@H](C3=CC(=O)O[C@H]3O)O[C@H]2O)C(C)(C)CCC1 [manoalide, reference compound]
- PR1 gene expression by rPLA2α catalytically inactivated with manoalide ([1]; rPLA2α pre-treated with PLA2 inhibitor manoalide): failed to induce PR1 gene expression
- inactivation of the PLA2α activity (PLA2α): Inactivation of the PLA2α activity caused by manoalide was confirmed

Compound: O=C(O)c1ccccc1O [SA, salicylic acid, reference compound]
- NPR1 translocation from the cytoplasm to the nucleus (NPR1): as did SA treatment

Reference: patent US10030256B2, “Method for producing lysophosphatidylethanolamine 18:1 from microorganism of Pseudomonas sp” (KOREA RESEARCH INSTITUTE OF BIOSCIENCE AND BIOTECHNOLOGY, priority 2015, dated 2018)
